From patent US5366966A, “Compound UCE6” (Kyowa Hakko Kogyo Co., Ltd., priority 1992, dated 1994) come the findings set out here.

Data set [1] is described as follows: Solubility. The format is physicochemical.
The test system of data set [2] is HeLaS3 cells. In words: Inhibition on the Growth of HeLaS3 Cells (Neutral Red staining). The format is cell-based. Particulars: Homo sapiens, HeLa S3, 72 hours at 37° C., absorbance at 550 nm, read-out: IC50 (the concentration of the test compound capable of inhibiting the growth of the cells at a ratio of 50%). As for the experimental part:
(A) Inhibition on the Growth of HeLaS3 Cells
0.1 ml portions of a 3×10^4 cell/ml suspension of HeLaS3 cells [American Type Culture Collection (ATCC) CCL2.2]. in Minimum Essential Medium (MEM) medium (mfd. by Nissui Seiyaku) containing 10% of calf fetal serum and 2 mM of glutamine (hereinafter referred to as the medium A) were pipetted into a 96-well microtiter plate. 0.05 ml of the test compound optionally diluted with the medium A is added to each well, followed by incubating in a carbon dioxide gas incubator at 37° C. for 72 hours. After removing supernatant the culture 0.1 ml of the medium A containing 0.02% of Neutral Red is added to the residue. The cells are cultivated in the carbon dioxide gas incubator at 37° C. for additional one hour to thereby stain the cells. After removing the supernatant of culture, the residue was washed with saline once. The pigment is extracted with 0.001 N hydrochloric acid/30% ethanol and the absorbance at 550 nm is measured with a microplate reader. Then IC50 (the concentration of the test compound capable of inhibiting the growth of the cells at a ratio of 50%) is calculated on the basis of the comparison between the absorbance of untreated cells and that of the test compound-treated cells (at various concentration of the test compound).

For the compound `Cc1c(O)cc2c(c1O)C(=O)c1c(cc3cc(O)cc(CC(=O)CC(C)O)c3c1O)C2=O` (stereo not drawn) [UCE6], the Solubility entry in data set [1] (in dimethylsulfoxide (DMSO), N,N-dimethylformamide and pyridine) was “soluble”; in data set [1] (in water, ethanol, methanol, ethyl acetate and chloroform) it was “hardly soluble”. Also, the IC50 in data set [2] was 18 nM.
